In patent publication US10646521B2, “Microbiota composition, as a marker of responsiveness to chemotherapy, and use of microbial modulators (pre-, pro- or synbiotics) for improving the efficacy of a cancer treatment” (INSTITUT GUSTAVE ROUSSY, priority 2013, dated 2020):
Entries after “also recorded” stand apart in the source; their conditions may differ. Structures can show the parent of a compound that is named as a salt.

What was measured:
MC38-OVAdim tumor cells = assay: OVA vaccine + CTX, rechallenge with MC38-OVAdim tumor cells; type: in vivo, C56BL/6 mice; conditions: antibiotics 20 days, rechallenge at day 50
Experimental: FIG. 38: Anticancer vaccines combined with CTX promote a long lasting anticancer immunity which depends on gut Gram negative bacteria. A. Experimental setting. C56BL/6 mice were treated with broad spectrum ATB (ampicilline, colistine, streptomycine) or vancomycine (which only kills Gram+ bacteria) or colistine (which only kills Gram− bacteria) for 9 days, received one ip, injection of CTX (100 mg/kg), followed 3 days later by vaccination with OVA protein in CpG adjuvants (or mock vaccines). ATB were stopped after 20 days and animals were left untreated under observation for 1 month. At day 50, all mice were rechallenged with a lethal dose of 10× times the MTD of MC38-OVA^dim tumor cells sc. B. Animals were scored on the basis of tumor outgrowth (featuring no or weak memory T cell response). The percentages of tumor-free mice was recorded for 2 experiments comprising 5 mice/group.*Anova test: p<0.05.

[1] = tested on: tumor-infiltrating lymphocytes; assay: Flow cytometry of tumor-infiltrating lymphocytes; type: in vivo, mice
MCA205 sarcomas = type: in vivo, C57BL/6 mice
splenocytes = assay: TCR cross-linking of splenocytes, IL-17 and IFNγ ELISA; type: in vivo, mice
lung adenocarcinoma = assay: Lung adenocarcinoma-bearing KP mice treated with chemotherapy
Experimental: Mice were either left untreated or received chemotherapy (d84, d91 and d98) in absence or presence of 0.25 mg/ml vancomycin (mixed into drinking water starting on d77 and until the end of the experiment; antibiotic-containing water was replaced biweekly). Tumor volumes were quantified on d73 and 100 (equivalent of ‘pre’ and ‘post’ chemotherapy) in anesthetized mice by noninvasive imaging as described before (Cortez-Retamozo et al., 2013).

splenic pTh17 cells = assay: Flow cytometry of splenic pTh17 / TH1 / Tc1 cells; conditions: for CTX-mediated pTH17 in the spleen: WT animals treated with NOD agonists
Experimental: For cross-linking experiment, 2×10^5 total splenocytes per well (after red cell lysis) were incubated in MaxiSorp plates (Nunc) precoated with anti-CD3ε mAb (145-2C11) (0.5 μg per well; eBioscience) and/or anti-CD28 mAb (37.51) (2 μg/ml; BD). The supernatants were assayed at 48 h by ELISA for mouse IL-17A (eBioscience) and IFNγ (BD). […] For intracellular, cells were incubated for 4 h at 37° C. with 50 ng/ml of PMA, 1 μg/ml of ionomycin and BD Golgi STOP™. After membrane staining, cells were stained with anti-IL-17A, IFNγ, T-bet and RORγt using eBioscience FoxP3/Transcription factor staining buffer set.

fecal commensal bacteria = assay: Culture of fecal commensals under antibiotics; type: in vivo, mice; conditions: antibiotic in drinking water, tumor bearers
Experimental: Mice were treated with antibiotics 2-3 weeks before tumor implantation and continued until the end of the experiment. A mix of ampicillin (1 mg/ml)+streptomycin (5 mg/ml)+colistin (1 mg/ml) (Sigma-Aldrich) or vancomycin (0.25 mg/ml) or colistin alone (2·10^3 U/ml) were added in sterile drinking water. Solutions and bottles were changed 2-3 times a week.
(§1) Serial dilutions of feces from naïve mice or tumor bearers treated with NaCl or CTX, vancomycin or broad spectrum antibiotics (ATB) (ampicillin+streptomycin+colistin), were plated onto COS agar plates and after 48 h, single colonies were isolated and Gram staining was performed. The identification of specific bacteria was accomplished through the combination of morphological tests and the analysis through VITEK® automated system (BioMérieux, France) and verified in mass spectrometry (MALDI-TOF, see below) performed at Pasteur Institute, Paris, France.

lipocalin-2 = assay: ELISA monitoring of lipocalin-2 in feces; type: in vivo, mice; conditions: WT animals treated with NOD agonists
Experimental: A. Enumeration of bacterial colonies in splenocytes 48 hrs post-CTX therapy in various mouse backgrounds. Splenic cells (left panel) and mesenteric LN (middle panel) harvested from C57BL/6 WT or NOD1^−/−×NOD2^−/− mice were cultured in anaerobic conditions for 48 hours. Bacterial outgrowth was enumerated (number of colonies/plate and frequencies of positive plates/animal (right panel)) and eventually characterized by mass spectrometry for bacterial identification. B. Flow cytometric analyses of pTH17 cells. CD4^+ T cells co-expressing IFN[…]γ in the gate of live IL-17+ T splenocytes in WT versus NOD1 or NOD2 deficient mice C. Idem as in B. but experiment performed in WT animals treated with NOD agonists (MDP and TriDAP) according to the experimental setting aligned in the upper part of the graph. D. ELISA monitoring of lipocalin-2 in the feces of mice according to the experimental setting aligned in C. A representative experiment is shown for A and D. Concatenated data from 2-3 individual experiments including 3 mice/group are depicted in B-C. Anova statistical analyses: *p<0.05, **p<0.01, ***p<0.001.

commensal bacteria = type: in vivo, mice; conditions: 48 h after treatment
Experimental: Mesenteric lymph nodes and spleens were aseptically removed, smashed in PBS and plated onto COS agar plates (BioMérieux), for aerobic and anaerobic growth. After 48 h of culture, single colonies were isolated and stocked in glycerol at −80° C.
as §1

[2] = tested on: small intestine epithelium; conditions: mouse, in vivo
Experimental: The whole small intestine (duodenum, jejunum and ileum) was removed, cleaned from fecal content and fixed in 4% of PFA for 1 h. Re-hydration of the tissue was performed in 15% sucrose for 1 h and in 30% sucrose overnight. Depending on the experiment, the small intestine was entirely rolled, or cut into small pieces, then embedded in optimum cutting temperature (OCT) compound (Sakura), snap frozen and longitudinal or transversal […] were prepared.
For histological analyses, the longitudinal sections were counterstained with hematoxilin and eosin. For the histological quantitative analyses, inflammatory foci, altered villi and the thickness of lamina propria were scored for each section, while the number of goblet cells was counted for each villus. […] Then, a rabbit polyclonal antibody against the lysozyme protein (1:500 for 1 h, Thermo Scientific) and ALEXA FLUOR 488 Fragment of goat anti-rabbit IgG (1:300 for 1 h, Molecular Probes) were used. All steps were performed at room temperature. Lysozyme-positive areas were quantified on mosaic images using the Histolab software (Microvision Instruments). The quantification of Paneth cells was performed measuring the average area of the Lysozyme-positive clusters (group of Paneth cells) as well as the emission/μm^2 of those clusters (not shown).

CN[C@H](CC(C)C)C(=O)N[C@H]1C(=O)N[C@@H](CC(N)=O)C(=O)N[C@H]2C(=O)N[C@H]3C(=O)N[C@H](C(=O)N[C@H](C(=O)O)c4cc(O)cc(O)c4-c4cc3ccc4O)[C@H](O)c3ccc(c(Cl)c3)Oc3cc2cc(c3O[C@@H]2O[C@H](CO)[C@@H](O)[C@H](O)[C@H]2O[C@H]2C[C@](C)(N)[C@H](O)[C@H](C)O2)Oc2ccc(cc2Cl)[C@H]1O [vancomycin]
effect on long term protection of an OVA-based cancer vaccine + CTX against lethal challenge (MC38-OVAdim tumor cells): did not prevent | frequencies of tumor-infiltrating CD3+ T cells and Th1 cells ([1]; MCA205 tumors, 8 days post-CTX): reduced | γδT17 cells in tumor beds post-therapy ([1]; chemotherapy-treated tumors): devoid | effect on the anti-tumor efficacy of CTX against MCA205 sarcoma (MCA205 sarcomas; 3 week conditioning with antibiotic): compromised; also recorded: reduced | effect on CTX-induced Th17 conversion (splenocytes; antibiotic in drinking water): reduced | intratumoral CD8+ T effector/Foxp3+ regulatory T cell ratio (lung adenocarcinoma; Chemo+Vanco): reduced | effect on the anticancer efficacy of CTX-based chemotherapy (lung adenocarcinoma; vancomycin 0.25 mg/ml in drinking water, oxaliplatin plus CTX): inhibitory role; also recorded: compromised | effect on CTX-induced accumulation/differentiation of pTh17 in the spleen (splenic pTh17 cells; MCA205 tumor bearers, 7 days after CTX): prevented; also recorded: blunts | repertoire of commensal bacteria in feces (fecal commensal bacteria): biased the repertoire of commensal bacteria towards distinct commensal species

C[C@H](N)C(=O)N[C@H](CCC(=O)NC(CCCC(N)C(=O)O)C(=O)O)C(=O)O (some centres unmarked) [TriDAP]
release of the antimicrobial peptide lipocalin-2 in stools (lipocalin-2): promoting the release | CTX-mediated pTH17 in the spleen (splenic pTh17 cells): reducing

COc1cccc2c1C(=O)c1c(O)c3c(c(O)c1C2=O)C[C@@](O)(C(=O)CO)C[C@@H]3O[C@H]1C[C@H](N)[C@H](O)[C@H](C)O1 [doxorubicin, Doxorubicin hydrochloride]
dependence of tumor growth reduction on gut commensals (MCA205 sarcomas; SPF, ATB-treated and germ-free mice): does not require gut commensals for reducing tumor growth | translocation of commensal bacteria into mesenteric lymph nodes and spleens, compared with CTX (commensal bacteria): less so | polarization of splenic CD4+ T cells towards Th1 and Th17 pattern (splenocytes; day 7 after treatment): not found | inflammatory status of the gut epithelial barrier (histology) [2]: shortening of small intestinal villi, discontinuities of the epithelial barrier, interstitial edema and focal accumulation of mononuclear cells in the lamina propria | induction of pTh17 cells in the spleen (splenic pTh17 cells; Doxo i.p., splenocytes 7 days later): failed to induce pTh17 cells in the spleen

colistin
effect on long term protection of an OVA-based cancer vaccine + CTX against lethal challenge (MC38-OVAdim tumor cells): did | repertoire of commensal bacteria in feces (fecal commensal bacteria): promoted the outgrowth of E. faecalis

CC(=O)N[C@H]1C(O)O[C@H](CO)[C@@H](O)[C@@H]1O[C@H](C)C(=O)N[C@@H](C)C(=O)N[C@H](CCC(=O)O)C(N)=O (mixture of isomers) [myramyl dipeptide]
release of the antimicrobial peptide lipocalin-2 in stools (lipocalin-2): promoting the release | CTX-mediated pTH17 in the spleen (splenic pTh17 cells): reducing
